{"source": "patent US20070270409A1", "about": "“Medicament for Preventing and/or Treating Ischemic Cardiovascular Disease” (Mitsubishi Pharma Corporation, priority 2004, published 2007)", "test_system": "patients with anterior ST-segment elevation myocardial infarction undergoing PCI", "assay": "Clinical study of caldaret in patients undergoing PCI: SPECT measurements and cardiac serum markers", "format": "in vivo", "conditions": "for Infarct size (% of the left ventricle): continuous intravenous 48 hours started about 30 minutes before PCI; for Infarct size (% of the left ventricle) / EDV (left ventricular end-diastolic volume) / ESV (left ventricular end-systolic volume) / LVEF (left ventricular ejection fraction): SPECT at day 7; for Infarct size (% of the left ventricle) / Serum marker CK / Serum marker TnT / EDV (left ventricular end-diastolic volume) / ESV (left ventricular end-systolic volume) / LVEF (left ventricular ejection fraction): TIMI flow grade 0 or 1; for Serum marker CK / Serum marker TnT / EDV (left ventricular end-diastolic volume) / ESV (left ventricular end-systolic volume) / LVEF (left ventricular ejection fraction): continuous intravenous 48 hours; for Serum marker CK: AUC of CK at days 0 to 3; for Serum marker TnT: AUC of TnT at days 0 to 5", "procedure": "Three hundred and eighty-seven patients with ΣST elevation of 10 mm or more undergoing PCI were divided into 3 groups: a caldaret non-administration group; a 61.5 mg caldaret administration group (57.5 mg in terms of 5-methyl-2-(1-piperazinyl)benzenesulfonic acid) (low-dose group); and a 184.6 mg caldaret administration group (172.5 mg in terms of 5-methyl-2-(1-piperazinyl)benzenesulfonic acid) (high-dose group). To these patients, administration of placebo (the caldaret non-administration group) or caldaret (the low-dose group and the high-dose group) was initiated about 30 minutes before PCI was performed. Placebo or caldaret was continuously administered intravenously for 48 hours. At day 7 after administration (the initiation day of adminstration=day 0 after administration, and hereinafter the same), the infarct size, the left ventricular end-systolic volume (ESV), the left ventricular end-diastolic volume (EDV) and the left ventricular ejection fraction (LVEF) were measured by SPECT and the cardiac serum markers were measured. Incidentally, as for the serum markers, AUC of TnT at days 0 to 5 after administration and AUC of CK at days 0 to 3 after administration were measured.\nHereinafter, the measurement results in 247 patients with TIMI flow grade 0 or 1 diagnosed with anterior ST-segment elevation myocardial infarction (88 patients in the low-dose group, 70 patients in the high-dose group and 89 patients in the caldaret non-administration group) are shown.", "key": {"[1]": {"conditions": "high-dose group, 184.6 mg caldaret"}, "[2]": {"conditions": "low-dose group, 61.5 mg caldaret"}}}
{"smiles": "Cc1ccc(N2CCNCC2)c(S(=O)(=O)O)c1.O", "note": "[caldaret, 5-methyl-2-(1-piperazinyl)benzenesulfonic acid monohydrate]", "values": [{"measurement": "All the measurement parameters compared with the non-administration group", "setting": "359 patients with anterior ST-segment elevation myocardial infarction regardless of the TIMI flow grade, low-dose and high-dose groups", "result": "improving tendency"}, {"measurement": "Infarct size (% of the left ventricle)", "setting": "[1]", "result": "25.7 (b) % of the left ventricle"}, {"measurement": "Serum marker CK", "setting": "[1]", "result": "1157 (*) IU/I"}, {"measurement": "Serum marker TnT", "setting": "[1]", "result": 4.3, "unit": "mg/L"}, {"measurement": "EDV (left ventricular end-diastolic volume)", "setting": "[1]", "result": 134.1, "unit": "mL"}, {"measurement": "ESV (left ventricular end-systolic volume)", "setting": "[1]", "result": 78.0, "unit": "mL"}, {"measurement": "LVEF (left ventricular ejection fraction)", "setting": "[1]", "result": "38.1 (*) %"}, {"measurement": "Infarct size (% of the left ventricle)", "setting": "[2]", "result": "24.4 (a) % of the left ventricle"}, {"measurement": "Serum marker CK", "setting": "[2]", "result": "1144 (*) IU/I"}, {"measurement": "Serum marker TnT", "setting": "[2]", "result": 5, "unit": "mg/L"}, {"measurement": "EDV (left ventricular end-diastolic volume)", "setting": "[2]", "result": 138.4, "unit": "mL"}, {"measurement": "ESV (left ventricular end-systolic volume)", "setting": "[2]", "result": 80.7, "unit": "mL"}, {"measurement": "LVEF (left ventricular ejection fraction)", "setting": "[2]", "result": 36.6, "unit": "%"}, {"measurement": "Effect on myocardial injury and myocardial function", "setting": "patient with anterior ST-segment elevation myocardial infarction undergoing percutaneous coronary intervention, overall conclusion", "result": "can alleviate myocardial injury and preserve myocardial function"}]}
